Test results from patent US11156599B2, “Assay for telomere length regulators” (The Johns Hopkins University, priority 2015, dated 2021).

Experiments:
[1] = tested on: ATM kinase-dependent signaling pathway (Kap1-S824 phosphorylation); test: Western blot of phosphorylated Kap1 (ATM substrate); format: cell-based, mouse
Description: Having established the robust ADDIT assay that can measure telomere elongation over one cell cycle, it was desired to examine whether the ATM kinase activity is required for telomere elongation. Two different methods were used to inhibit ATM: the ATM specific inhibitor KU55933 and siRNA knockdown. To confirm the inhibition of ATM kinase activity, the phosphorylation level of ATM substrate Kap1 as well as ATR kinase substrate Chk1 was examined by western blot. Cultured cells were pretreated with KU55933, siATM or DMSO control and later exposed to a DNA damaging reagent Camptothecin (CPT).
To detect phospho-proteins, 1× lysis buffer made of final concentration of 1× RIPA (Cell Signaling, #98016S), 1× protease inhibitor cocktail, 1× PhosSTOP™ (Roche, #4906845001) was added directly to cells on the dish after washing with cold 1× PBS. Protein concentration was measured with a BCA protein assay kit (Thermo, #23227). Typically 10 μg of protein from each sample was applied to SDS-PAGE gels, 4-15% Mini-PROTEAN TGX™ gels (Biorad, #456-1084), and transferred to nitrocellulose membranes in transfer buffer. […] Band intensities were quantified using the Odyssey™ software (LI-COR) and normalized to Actin levels. […]

SL13 cells = test: Telomere Southern blot after telomerase (mTR and mTERT) overexpression; format: cell-based, mouse; conditions: lentivirus expressing mTR and mTERT, 2 or 5 days in culture
Description: To examine the role of ATM in telomere elongation by an independent method, telomerase was overexpressed in the cell line, in the presence of ATM inhibition. It has been shown that overexpressing telomerase elongates telomere lengths in human cells. Cells were treated with KU55933 and then transduced with a lentivirus expressing both mTR and mTERT and grown for 2 or 5 days in culture and telomere lengths were assayed by Southern blot. Telomere lengths in cells overexpressing telomerase were rapidly elongated in just 5 days (data not shown). […] In addition, as discussed below, when cells are grown for several days, ATR may also compensate for the loss of ATM. […]
To measure telomere lengths by Southern blot, genomic DNA was extracted from cell pellets collected at different population doublings using the Puregene Core Kit A™ (Qiagen). […] Labeled probe was counted and 10^6 counts/ml (telomere probe) or 10^4 counts/ml (ladder) was denatured at 100° C. for 5 minutes and added to the pre-hybridization solution and hybridized overnight at 65° C. Membranes were washed 3× 15 minutes each in 6× SSC and 1% SDS at 65° C., and 3× 15 minutes each in 1× SSC and 1% SDS at 65° C. and exposed to a phosphorimager screen and detected on a Fuji phosphorimager. […]

human HCT116 cells = test: Telomere length in continuously growing HCT116 cells; format: cell-based; conditions: KU55933

SMILES	increased level of Kap1 phosphorylation compared to DMSO-treated control cells ([1]; Olaparib treated cells) [fold]	telomere elongation by telomerase overexpression (SL13 cells)	telomere lengths with increasing cell PDs (human HCT116 cells)	Kap1-S824 phosphorylation ([1]; pretreated, later exposed to Camptothecin (CPT), western blot)
O=C(c1cc(Cc2n[nH]c(=O)c3ccccc23)ccc1F)N1CCN(C(=O)C2CC2)CC1 [Olaparib]	5	–	–	–
O=c1cc(-c2cccc3c2Sc2ccccc2S3)oc(N2CCOCC2)c1 [KU55933]	–	significantly blocked the telomere elongation	shortened significantly	blocked Kap1 phosphorylation
